ChEMBL document CHEMBL3507680, “University of Dundee, Gates Library screen for HepG2 cell viability”

Test: Human HepG2 cell viability assay in 384 well format
Format: toxicity, cell-based
Parameters: dose 125 nL, time 70.5 hour; cytotoxicity at 70.5 h: concentration not given beside the values
Details: HepG2 cells, read-out: Inhibition

Compound | cytotoxicity at 70.5 h [%]
Cc1cc(NC(=O)CN2CCCC2c2noc(C(C)C)n2)on1 (stereo unspecified) | -14.1
CCn1nc2c(cc1=O)CN(Cc1nc(-c3cccs3)no1)CC2 | -12.8
CC(Cn1cccn1)NC(=O)Cc1csc(C(C)C)n1 (stereo unspecified) | -10.5
Cn1ccc(C(=O)NCc2ccc(N3CCCCC3)nc2)cc1=O | 18.6
CC(C)NC(=O)c1cc(Br)c2c(c1)OCCO2 | -6.96
CSc1ccccc1C(=O)NCCCN1CCc2ccccc2C1 | -5.68
Cc1cc(C)n(CC2CN(CCOc3ccccc3F)CCO2)n1 (stereo unspecified) | -2.73
CC(C)OCc1cccc(CNc2cnn(C)c(=O)c2Cl)c1 | 3.32
CC(C)C(C)NC(=O)c1cc(Br)c2c(c1)OCCO2 (stereo unspecified) | -4.14
Cc1nc(C)n(CC2CN(CCOc3ccccc3C#N)CCO2)n1 (stereo unspecified) | -8.64
Cc1nc(C)n(CC2CN(CCOc3ccc(C#N)cc3)CCO2)n1 (stereo unspecified) | -13.3
Cc1nc(C2CCCN(C(=O)COCCc3ccccc3)C2)no1 (stereo unspecified) | -6.43
CCc1csc(C2CCCN(C(=O)COc3cc(C)on3)C2)n1 (stereo unspecified) | -8.8
Cc1cn2c(n1)CCC(NC(=O)c1[nH]nc(C)c1Br)C2 (stereo unspecified) | 13.2
Cc1cc(OCC(=O)N2CCCC(c3noc(C(C)C)n3)C2)no1 (stereo unspecified) | -1.68
Cc1nnc(NC(=O)CN2CCCC2c2noc(C(C)C)n2)s1 (stereo unspecified) | -8.98
Cc1ccc(OCCN2CCCC(c3cc(C(N)=O)[nH]n3)C2)cc1 (stereo unspecified) | -5.38
Cc1ccccc1OCCN1CCCC(c2cc(C(N)=O)[nH]n2)C1 (stereo unspecified) | -6.71
Cc1cccc(OCCN2CCCC(c3cc(C(N)=O)[nH]n3)C2)c1 (stereo unspecified) | -7.94
Cc1cc(NC(=O)CN2CCCC2c2noc(C)n2)n(C(C)(C)C)n1 (stereo unspecified) | -7.96
Cc1nc(C(=O)N2CCCC2c2cnn(C)c2)ccc1C#N (stereo unspecified) | 20.3
CC(O)CN1CCN(C(=O)c2sccc2C2CC2)CC1 (stereo unspecified) | -5.67
COC(=O)CC(NC(=O)c1ccc(OC)cc1OC)c1cccs1 (stereo unspecified) | -11.2
COc1ccc(C(=O)NC(CC(=O)O)c2cccs2)c(OC)c1 (stereo unspecified) | -11.6

Compound | cytotoxicity at 70.5 h [%]
COc1cccc(C(=O)NC(CC(=O)O)c2cccs2)c1OC (stereo unspecified) | -9.47
NC(=O)C1CCCN(c2ccc(CNC(=O)c3cnsn3)cc2)C1 (stereo unspecified) | -7.99
NC(=O)C1CCCN(c2ccc(CNC(=O)c3csnn3)cc2)C1 (stereo unspecified) | -6.98
CCn1cnnc1CNC(=O)N1CCC(CN2CCCCCC2)CC1 | -7.73
CCn1cnnc1CNC(=O)N1CCC(CN2CCOCC2)CC1 | -14.7
Cc1cnn(CC2CN(CC(=O)NCc3ccco3)CCO2)c1 (stereo unspecified) | -15.3
Cc1cnn(CC2CN(CC(=O)NCc3ccc(C)s3)CCO2)c1 (stereo unspecified) | -13.6
Cc1cnn(CC2CN(CC(=O)Nc3ccnn3C(C)C)CCO2)c1 (stereo unspecified) | -6.91
Cc1nc(C)n(CC2CCCN2Cc2nc(C)c3ccccc3n2)n1 (stereo unspecified) | -7.3
O=C(O)CC(NC(=O)c1ccccc1OC(F)F)c1cccs1 (stereo unspecified) | 2.5
COc1c(C2CCCN2C(=O)c2ccc(C#N)c(C)n2)c(C)nn1C (stereo unspecified) | -8.97
COc1c(C2CCCN2Cc2nc(C3CC3)no2)c(C)nn1C (stereo unspecified) | 9.69
Cc1ccc(-c2nc(CN3CCOC(CN(C)C)C3)co2)cc1 (stereo unspecified) | -5.51
O=C(CN1CCOC(Cn2cccn2)C1)NCc1ccccn1 (stereo unspecified) | -9.46
CC(Oc1ccccc1)C(=O)N1CCCN(Cc2nccn2C)CC1 (stereo unspecified) | -10.4
Cc1nccn1C1CCCN(C(=O)c2cc(Cl)c3c(c2)OCO3)C1 (stereo unspecified) | -5.54
CSC(C)C(=O)N1CCCN(Cc2nccn2C)CC1 (stereo unspecified) | -1.04
Cc1cnn(CC2CN(Cc3ccccn3)CCO2)c1 (stereo unspecified) | -5.81
Cc1nn(C)c(N(C)C)c1CNCc1ccccc1Cn1cccn1 | -2.08
CCN1CCC(NC(=O)CN2CCCCC2Cn2cncn2)CC1 (stereo unspecified) | 0.615
CCc1n[nH]c(C2CN(C(=O)c3cncnc3CC)CCO2)n1 (stereo unspecified) | 0.869
Cc1cnn(CCNCc2ccc(OCc3ccncc3)cc2)c1 | 0.513
CCn1ncc2c1CCCC2NCc1ccccc1N1CCOCC1 (stereo unspecified) | 7.21
CC(C)(C)n1ncc2c1CCCC2NCc1cccc2c1OCCO2 (stereo unspecified) | -7.2

Compound | cytotoxicity at 70.5 h [%]
Cc1cnn(CC2CCCN2C(=O)Cc2ccc(C)nc2)c1 (stereo unspecified) | -7.79
CCn1ncc2c1CCCC2NCc1cccc2c1OCCCO2 (stereo unspecified) | -0.304
Cc1cnn(CC2CCCN2C(=O)Cc2cccs2)c1 (stereo unspecified) | -8.39
Cc1nc(C2CCCN(C(=O)c3cc(Cl)c4c(c3)OCO4)C2)no1 (stereo unspecified) | -5.22
Cc1cnn(CC2CCCCN2CC(=O)Nc2nc(C)cs2)c1 (stereo unspecified) | -2.94
CCOc1ncccc1CNC(=O)Nc1cc(C)nn1C | -4.27
Cc1ccc(CNC(C)c2ccc(OCC(=O)NC3CC3)cc2)o1 (stereo unspecified) | -1.22
CCN(Cc1nc2c(cnn2C)c(=O)[nH]1)c1cc(C)cc(C)c1 | 9.75
CC(Cc1cccc(Cl)c1)NC(=O)Nc1cnn(CC(N)=O)c1 (stereo unspecified) | -1.82
COc1ccc(N(C)Cc2nc3c(cnn3C)c(=O)[nH]2)cc1OC | 0.734
CC(C)NC(=O)C1CCN(c2snc3ccccc23)CC1 | -9.65
O=C(Nc1ccc(F)cc1)N1CCN(Cc2noc(C3CC3)n2)CC1 | 1.53
Cc1cnn(CC2CCCCN2C(=O)Cc2c(C)nn(C)c2C)c1 (stereo unspecified) | -3.41
Cc1cnn(CC2CCCN2CC(=O)NC2CCOCC2)c1 (stereo unspecified) | 0.77
Cc1cnn(CC2CCCCN2C(=O)c2csc(C)n2)c1 (stereo unspecified) | -3.43
Cc1noc(CCCC(=O)NC(C)c2ccccn2)n1 (stereo unspecified) | -0.329
COc1c(CNCc2cnn(C)c2)c(C(C)C)nn1C | 7.69
CN(CC(=O)N(C)C1CCCCC1)C1CCc2ccccc21 (stereo unspecified) | -3.54
Cc1c(C(=O)NC(CN2CCCC2=O)c2ccccc2)cnn1C (stereo unspecified) | 0.932
CCN(Cc1ccc(OC)c(F)c1)C(=O)c1ccc(C)[nH]c1=O | -3.76
CC(C)(C)n1cc(C(=O)N2CCN(Cc3ccccc3F)CC2)cn1 | 5.09
CC(=O)N1CCN(C(=O)CCOc2ccc(C(C)C)cc2)CC1 | -3.31
Cc1nc(-c2ccsc2)ccc1C(=O)NCCC1CCCO1 (stereo unspecified) | 28.6
CNC(=O)NC(=O)CN1CCC(c2cccc(F)c2)C1 (stereo unspecified) | -4.22

Compound | cytotoxicity at 70.5 h [%]
Cc1cc(NC(=O)CN2CCn3c(nnc3C3CC3)C2)n(C)n1 | 7.81
CNc1nc(CNC(=O)Nc2cccc(F)c2C)cs1 | -7.06
Cc1noc(CCCC(=O)NC(C)c2cn(-c3ccccc3)nn2)n1 (stereo unspecified) | -3
CNc1nc(CNC(=O)Nc2ccccc2-c2noc(C)n2)cs1 | 7.32
COc1c(CNCc2ccc(CN(C)C)cc2)c(C(C)C)nn1C | 2.15
Cc1noc(C)c1CCC(=O)N1CCCN(Cc2cscn2)CC1 | -2.08
OC(COCc1ccccc1Cl)CN1CC(n2cccn2)C1 (stereo unspecified) | 4.22
Cc1ncc(CNC2CCCN(Cc3noc(C4CC4)n3)C2)s1 (stereo unspecified) | -2.63
Cc1cc2n(n1)CC(CNCc1cnn(-c3ccccc3)c1)CN2 (stereo unspecified) | -3.87
O=C(Cc1ccc2c(c1)OCO2)N1CCN(c2cnccn2)CC1 | -8.46
CCOc1ccccc1OC1CCN(C(=O)c2nc(=O)[nH][nH]2)CC1 | 27.9
CC(C)Oc1ncccc1CNC(=O)C1CCCN(C(=O)C2CC2)C1 (stereo unspecified) | 6.38
c1cnn(CC2CN(Cc3nc(-c4ccsc4)no3)CCO2)c1 (stereo unspecified) | -16.6
O=C(c1ccc(NC2CC2)nc1)N1CCCC(n2cccn2)C1 (stereo unspecified) | -4.81
CCOc1ccccc1C(CC(=O)Nc1ccc(C)cn1)NC(C)=O (stereo unspecified) | -9.08
Cc1ccc(N2CCCN(C(=O)C3(C#N)CCCCC3)CC2)nn1 | -0.352
CCc1ccc(C(=O)N2CCN(CCS(C)(=O)=O)CC2)o1 | -14.1
COc1ccc(OC)c(C(O)CN2CC(n3cccn3)C2)c1 (stereo unspecified) | -9.37
Cc1ncc(CN(C)C2CCCN(Cc3noc(C4CC4)n3)C2)s1 (stereo unspecified) | -12.3
CC(C)c1ncc2c(n1)CN(Cc1cccc(OCC(N)=O)c1)CC2 | -7.58
CC(C)c1nc(C2CCCN2CC(=O)N2CCc3ccccc32)no1 (stereo unspecified) | -3.85
Cc1csc(N2CCCN(C(=O)C3(C#N)CCCCC3)CC2)n1 | -9.35
CC(C)c1nc(C2CCCN2CC(=O)N2CCNC2=O)no1 (stereo unspecified) | -3.44
CC(C)c1csc(C2CCCN(C(=O)Cn3ccccc3=O)C2)n1 (stereo unspecified) | 23.3

Compound | cytotoxicity at 70.5 h [%]
CC(C)c1ncc2c(n1)CN(Cc1cccc(C#N)c1)CC2 | 4.14
CCc1nc(C2CCCN(C(=O)CCn3ccccc3=O)C2)no1 (stereo unspecified) | -0.684
CCn1ccnc1CN1CCN(CCOc2ccccc2OC)CC1 | 7.36
Cc1cnc(CN(C)C2CCN(CC(=O)N(C)c3nccs3)C2)o1 (stereo unspecified) | 42.1
Cc1cnc(CN(C)C2CCN(CC(=O)Nc3c(C)n[nH]c3C)C2)o1 (stereo unspecified) | 11.7
Cc1cc(CN(C)C(=O)c2cccc(N3CCCC3=O)c2)no1 | -9.25
O=C(Nc1ccccc1OC(F)F)C1=NN(c2ccccc2)C(=O)CN1 | -8.48
CC(Cn1cccn1)NC(=O)NCCc1ccc(Cl)s1 (stereo unspecified) | -5.79
Cc1ccc(OCCNC(=O)C(C)n2cncn2)cc1 (stereo unspecified) | 10.5
OC(COCc1cccs1)CN1CCC(c2ccn[nH]2)CC1 (stereo unspecified) | -17.6
COC(=O)c1ccc(N2CCN(C(=O)c3ccncc3)C(C)C2)cc1 (stereo unspecified) | 15.3
CC(NC(=O)N1CCC(n2cncn2)CC1)c1ccc(F)cc1F (stereo unspecified) | -13.6
Cc1nc(CN2CCCN(C(=O)C3(C#N)CCCCC3)CC2)cs1 | -16.4
O=C(NCCNc1ncccn1)N(Cc1ccc(F)cc1F)C1CC1 | -18.1
CN(C)C(=O)N1CCN(Cc2noc(Cc3ccccc3)n2)CC1 | -5.82
O=C(CCCOCc1ccccc1)N1CCCC1c1ccccn1 (stereo unspecified) | -12.6
Cn1cc(C2CCCN2C(=O)CCCOCc2ccccc2)cn1 (stereo unspecified) | 4.25
CCc1nc2n(n1)CC(NCC(=O)Nc1nccs1)CC2 (stereo unspecified) | 8
O=C(CN1CCCCC1Cn1cncn1)NCCc1ccc(F)cc1 (stereo unspecified) | 32.1
CCN(C(=O)CS(=O)(=O)Cc1cc(Cl)c2c(c1)OCCCO2)C1CC1 | 0.0743
